From the supplement of paper PMC5412046
Counter-ions that a name gives are not always drawn.

Assays:
SB.msgc-1 [1] = experiment: area under the dose-response curve of % viability (trapezoidal, 11 doses) (% viability x log10 concentration); higher = less cytotoxic; details: SB.msgc-1 (sporadic gastric cancer)
How it was run: (§1)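 Compound in DMSO was pinned (23 nL) at 11 threefold-diluted concentrations into wells containing 500 patient-derived gastric cancer cells, hereditary or sporadic, in 5 μL medium per 1536 well. Cells were incubated for 48 h, then exposed to CellTiter-Glo for 30 min at room temperature. Luminescence was measured on a ViewLux. The values are viability normalised to DMSO, either at the highest concentration or as trapezoidal area under the curve.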

SB.mhdgc-1 [2] = experiment: as above; details: SB.mhdgc-1 (hereditary c.1380delA CDH1 gastric cancer)
How it was run: as §1

SB.msgc-1 [3] = experiment: viability at highest tested concentration (MAXR) relative to DMSO; higher = less cytotoxic; details: SB.msgc-1 (sporadic gastric cancer)
How it was run: as §1

SB.mhdgc-1 [4] = experiment: as above; details: SB.mhdgc-1 (hereditary c.1380delA CDH1 gastric cancer)
How it was run: as §1

Row | SMILES | area under the dose-response curve (SB.msgc-1 [1]) | area under the dose-response curve (SB.mhdgc-1 [2]) | viability (SB.msgc-1 [3]) | viability (SB.mhdgc-1 [4])
1 | O=C(C1CCCCC1)N1CC(=O)N2CCc3ccccc3C2C1 (stereo unspecified) [Praziquantel] (top concentration 46.0829 µM) | 505 | 515 | 107% | 125%
2 | CCCCCCCCCCCCCC(=O)N[C@H](CO)[C@H](O)c1ccc([N+](=O)[O-])cc1 [D-NMAPPD] (top concentration 46.0829 µM) | 499 | 497 | 75.2% | 45.8%
3 | C=CCNc1c(O)cc2c(O)c1C[C@@H](C)C[C@H](OC)[C@H](O)[C@@H](C)/C=C(/C)[C@H](OC(N)=O)[C@@H](OC)/C=C\C=C(\C)C(=O)N2 [Retaspimycin] (top concentration 46.0829 µM) | 312 | 384 | 35.9% | 7.51%
4 | Cl.c1cnc2cc3c(cc2n1)C1CNCC3C1 [Varenicline tartrate] (top concentration 46.0829 µM) | 529 | 551 | 93.8% | 84.2%
5 | ClC1=CC\2=C(OC3=C(C=CC=C3)\N=C2N4CCNCC4)C=C1 [Amoxapine] (top concentration 46.0829 µM) | 461 | 542 | 57.2% | 30.9%
6 | C[N+]1(C)[C@@H]2C[C@@H](OC(=O)[C@H](CO)c3ccccc3)C[C@H]1[C@@H]1O[C@@H]12.[Br-] [Methscopolamine bromide] (top concentration 46.0829 µM) | 578 | 496 | 133% | 98.7%
7 | CC(C)(C)C(=O)Oc1ccc([S+](=O)([O-])Nc2ccccc2C(=O)NCC(=O)O)cc1 [Sivelestat] (top concentration 46.0829 µM) | 505 | 563 | 110% | 134%
8 | CNC(=O)[C@H](Cc1ccccc1)NC(=O)[C@H](CC(C)C)[C@H](CSc1cccs1)C(=O)NO [Batimastat] (top concentration 46.0829 µM) | 438 | 424 | 66.1% | 12.3%
9 | NC1(C(=O)N[C@@H](CCO)c2ccc(Cl)cc2)CCN(c2ncnc3[nH]ccc23)CC1 [AZD-5363] (top concentration 46.0829 µM) | 451 | 376 | 62.4% | 17%
10 | CN(C)C1=CC=C(C=C1)C(C2=CC=C(C=C2)N(C)C)=C/3\C=C/C(/C=C3)=[N+](C)C [Methylrosaniline chloride] (top concentration 46.0829 µM) | 379 | 356 | -1.17% | 0.7%
11 | CCCCc1ccc2[nH]c(NC(=O)OC)nc2c1 [Parbendazole] (top concentration 46.0829 µM) | 356 | 399 | 36.5% | 26.2%
12 | C[C@@H]1CCN(C(=O)CC#N)C[C@@H]1N(C)c1ncnc2[nH]ccc12 [Tofacitinib] (top concentration 46.0829 µM) | 484 | 495 | 98.8% | 82.7%
13 | Clc1ccc(C(Cn2ccnc2)OCc2c(Cl)cccc2Cl)c(Cl)c1 (stereo unspecified) [Isoconazole nitrate] (top concentration 46.0829 µM) | 509 | 505 | 54.8% | 50.2%
14 | CC[C@]1(O)C[C@H]2CN(CCC3=C([NH]C4=C3C=CC=C4)[C@@](C2)(C(=O)OC)C5=CC6=C(C=C5OC)N(C=O)[C@H]7[C@](O)([C@H](OC(C)=O)[C@]8(CC)\C=C/C[N@@]9CC[C@]67[C@H]89)C(=O)OC)C1 [Vincristine sulfate] (top concentration 46.0829 µM) | 251 | 260 | 36.7% | 33.5%
15 | F\C1=C\NC(=O)NC1=O [Fluorouracil] (top concentration 46.0829 µM) | 449 | 380 | 45.2% | 43.1%
16 | NC1=C(Cl)C(=CC=N1)OC2=C(F)C=C(NC(=O)\C3=C\N\C=C(C3=O)\C4=CC=C(F)C=C4)C=C2 (top concentration 46.0829 µM) | 497 | 413 | 41.1% | 62.3%
17 | C[S+](=O)([O-])c1cc(F)cc2c3c(n(Cc4ccc(Cl)cc4)c12)[C@@H](CC(=O)O)CC3 [Laropiprant] (top concentration 46.0829 µM) | 553 | 555 | 91.4% | 93.2%

Row | SMILES | area under the dose-response curve (SB.msgc-1 [1]) | area under the dose-response curve (SB.mhdgc-1 [2]) | viability (SB.msgc-1 [3]) | viability (SB.mhdgc-1 [4])
18 | CCNC(=O)Nc1ccc(-c2nc3c(c(N4CCOC[C@@H]4C)n2)CCN(C2COC2)C3)cc1 [GDC-0349] (top concentration 46.0829 µM) | 474 | 405 | 59.2% | 13.4%
19 | O=C1NC(=O)/C(=C\c2ccc(-c3ccc(F)cc3)o2)S1 (top concentration 46.0829 µM) | 504 | 531 | 65.2% | 85.9%
20 | COC(=O)C\1=C(C)\N\C(=C(/C1C2=CC=CC3=NON=C23)C(=O)OC(C)C)C (stereo unspecified) [Isradipine] (top concentration 46.0829 µM) | 292 | 390 | 0.326% | 2.69%
21 | COc1cccc([C@@H](C)NCCCc2ccccc2Cl)c1 [NPS R568] (top concentration 46.0829 µM) | 320 | 525 | 22% | 74.4%
22 | Cc1cc2c(C(C)C)c(O)c(O)c(C=O)c2c(O)c1-c1c(C)cc2c(C(C)C)c(O)c(O)c(C=O)c2c1O [(-)-Gossypol] (top concentration 46.0829 µM) | 495 | 537 | 18.3% | 18.3%
23 | CC1=CC=C2N=C(NC(=O)CS\C3=N\C4=C(\SCC4)C(=O)N3C5=CC=CC=C5)SC2=C1 [IWP-2] (top concentration 46.0829 µM) | 466 | 528 | 39.1% | 71.7%
24 | CC[C@H](/C=C/[C@@H](C)[C@H]1CC[C@H]2[C@@H]3CC=C4C[C@@H](O)CC[C@]4(C)[C@H]3CC[C@]12C)C(C)C [Stigmasterol] (top concentration 23.0415 µM) | 443 | 449 | 32.2% | 59.3%
25 | O=C(Nc1cc2cc[nH]c2cn1)c1ccccc1 [OAC1] (top concentration 46.0829 µM) | 397 | 395 | 20.4% | 13.9%
26 | COC(=O)C[C@](O)(CCCC(C)(C)O)C(=O)O[C@@H]1C(OC)=CC23CCCN2CCc2cc4c(cc2[C@H]13)OCO4 (stereo partly specified) [Omacetaxine mepesuccinate] (top concentration 46.0829 µM) | 409 | 567 | 64% | 97.7%
27 | CCOC(=O)N1CCN(/[N+]([O-])=N/Oc2cc(O/N=[N+](\[O-])N3CCN(C(=O)OCC)CC3)c([N+](=O)[O-])cc2[N+](=O)[O-])CC1 [Double JS-K] (top concentration 46.0829 µM) | 511 | 432 | 3.75% | 4.82%
28 | CCCCCCOC(=O)/N=C(/N)c1ccc(NCc2nc3cc(C(=O)N(CCC(=O)OCC)c4ccccn4)ccc3n2C)cc1 [BIBR 1048] (top concentration 46.0829 µM) | 500 | 459 | 35.7% | 37.6%
29 | COC/1=C/C=C2\C(=C/C1=O)[C@H](CCC3=CC(=C(OC)C(=C23)OC)OC)NC(C)=O [Colchicine] (top concentration 46.0829 µM) | 223 | 236 | 35.4% | 55.9%
30 | CC(C)(O)C(=O)Nc1ccc([N+](=O)[O-])c(C(F)(F)F)c1 [Hydroxyflutamide] (top concentration 46.0829 µM) | 530 | 503 | 69.9% | 2.92%
31 | CC[C@@H]1C(=O)N(C)c2cnc(Nc3ccc(C(=O)NC4CCC(N5CCN(CC6CC6)CC5)CC4)cc3OC)nc2N1C(C)C (stereo partly specified) [Volasertib] (top concentration 46.0829 µM) | 345 | 363 | 16.2% | 3.26%
32 | NCC1CCC(C(=O)O)CC1 (stereo unspecified) [Tranexamic acid] (top concentration 46.0829 µM) | 517 | 610 | 108% | 114%
33 | OC(CN1CCN(c2cccc(Cl)c2)CC1)C(c1ccccc1)c1ccccc1 (stereo unspecified) (top concentration 46.0829 µM) | 489 | 501 | 51.9% | 52.9%
34 | CN(CC(=O)N(Cc1ccc(C2CCCCC2)cc1)c1ccc(C(=O)O)c(O)c1)[S+](=O)([O-])c1c(F)c(F)c(F)c(F)c1F [BP-1-102] (top concentration 46.0829 µM) | 486 | 494 | 16.5% | 2.34%
